Measured values: patent US10017524B2, “Compound and pharmaceutical composition for neuropsychological disorder or malignant tumor” (KYOTO UNIVERSITY, priority 2012, dated 2018)

Legend:
[1] = test system: retinoblastoma cell lines WERI; assay: Inhibition of growth of cancer cells (Alamar Blue); type: cell-based
Method: (§1) Specifically, the cells were seeded on a 24 Well plate, and the compounds at a predetermined concentration were added. After cultivation for 5 days, the number of cells was calculated by detecting the fluorescence intensity with Alamar Blue. The culture medium containing the compounds was replaced every day. FIGS. 10 to 12 show an example of the results.

[2] = test system: Down's syndrome-derived acute megakaryoblastic leukemia (AMKL) cells KPAM1; assay: Inhibition of growth of cancer cells (Alamar Blue); type: cell-based; conditions: KPAM1, cultivation for 5 days
Method: as §1

[3] = test system: MDA-MB-468 human breast cancer cells (triple-negative); assay: Growth inhibition, adherent and non-adherent culture (Alamar Blue); type: cell-based; conditions: MDA-MB-468, cells cultured to prevent adhering
Method: as §1
(§2) In addition, the effect was also confirmed when the target cells were cultured to prevent them from adhering to each other.

[4] = test system: MDA-MB-453 human breast cancer cells (triple-negative); assay: as above; type: cell-based; conditions: MDA-MB-453, cells cultured to prevent adhering
Method: as §1, §2

PC-9-GR-high lines = assay: Growth inhibition, microscopic observation; type: cell-based, human; conditions: microscope
[5] = test system: phosphorylation of a threonine residue at position 212 of tau protein by DYRK1A protein; assay: Inhibitory activity on phosphorylation of tau protein in cultured cells expressing tau and DYRK1A (western blot, Thr212); type: cell-based; conditions: compounds of 10 μM, phospho-Thr212 tau, cells expressing tau and DYRK1A
Method: The inhibitory activity of the compounds synthesized in the production examples on the phosphorylation of tau protein was evaluated by an evaluation system using the following cultured cells.
The cultured cells that can induce the expressions of tau protein and DYRK1A protein individually and that allow the phosphorylation of the tau protein to be evaluated depending on the activity of the DYRK1A protein were used in the evaluation system. […] Therefore, the inhibitory activity on the phosphorylation of the tau protein can be evaluated by inducing the expressions of both the tau protein and the DYRK1A protein, and evaluating the degree of phosphorylation of a threonine residue at position 212 of the tau protein.
The compounds 1, 4, and 6 to 9 (10 μM) were added to the evaluation system, and the phosphorylation of the tau protein was detected with the antibody that specifically recognizes the phosphorylation of a threonine residue at position 212 of the tau protein. […] The “control” represents the result of adding no compound.
The inhibitory activity of the compounds 1 and 2 on the phosphorylation of tau protein was evaluated in the same manner as the Experimental example 1.
The “control” represents the result of adding no compound.
The inhibitory activity of the compounds 3, 6, and 9 to 15 on the phosphorylation of tau protein was evaluated in the same manner as the experimental example 1. FIGS. 7 to 9 show an example of the results.

[6] = test system: human lung adenocarcinoma-derived cell lines (PC-9); assay: Growth inhibition, microscopic observation; type: cell-based; conditions: PC-9 lines, microscope
[7] = test system: PC-9-GR-step lines (gefitinib-resistant sub-lines of PC-9); assay: Growth inhibition, microscopic observation; type: cell-based, human; conditions: microscope

CCN1/C(=C/C(C)=O)Sc2ccc3oc4ccccc4c3c21 [Compound 3, (Z)-1-[1-ethylbenzo[2,3]benzofuro[4,5-d]thiazol-2(1H)-ylidene]propan-2-one]
inhibitory effect on the growth of the cancer cells [1]: inhibitory effect | inhibitory effect on the growth of the cancer cells [2]: excellent inhibitory effect | inhibitory effect on the anchorage-independent growth [3]: inhibitory effect | inhibitory effect on the anchorage-independent growth [4]: inhibitory effect | apoptosis-inducing activity on the cancer cells (PC-9-GR-high lines): excellent apoptosis-inducing activity | inhibitory effect on the phosphorylation of the tau protein [5]: inhibitory effect | apoptosis-inducing activity on the cancer cells [6]: excellent apoptosis-inducing activity | apoptosis-inducing activity on the cancer cells [7]: excellent apoptosis-inducing activity
